Measurements published in patent publication US20260216247A1, “Composition For Treatment Or Prevention Of Hair Loss Comprising Stem Cell-Derived Exosomes And Preparation Method Therefor” (BREXOGEN INC., priority 2023, published 2026).

What was measured:
[1] = test system: testosterone-treated C57BL/6 mice; assay: Ratio of anagen-phase hair follicles in skin tissue (H&E), testosterone-treated animal model; type: in vivo; conditions: Anagen/(Catagen+Telogen); dorsal skin after 27-day experiment; 1 mg/kg Finasteride subcutaneous
Method: To determine whether the composition of the present disclosure inhibits the reduction of hair follicles, the ratio of anagen-phase hair follicles was measured in a testosterone-treated animal model following administration of BxC-HAe isolated in Example 2. Specifically, dorsal skin tissues from each mouse subjected to the 27-day experiment described in Example 8 were collected, embedded in paraffin blocks, and sectioned at a thickness of 5 μm. The tissue sections were then stained using H&E. Subsequently, for each group, randomly selected hair follicles from the dorsal skin of five mice were classified by morphology into anagen (growth phase), catagen (regression phase), and telogen (resting phase). The ratio of anagen hair follicles was calculated using the formula: Anagen/(Catagen+Telogen). The results were presented in FIGS. 20 and 21, and Table 18.

[2] = test system: β-catenin; assay: β-catenin immunofluorescence in skin tissue, testosterone-treated animal model; type: in vivo, C57BL/6 mice; conditions: dorsal skin after 27-day experiment; 1 mg/kg Finasteride; testosterone-untreated = 1
Method: To determine whether the composition of the present disclosure modulates the expression of hair loss and regrowth-related factors, a testosterone-treated animal model was administered BxC-HAe isolated in Example 2, and the fluorescence intensity of cells stained with antibodies against androgen receptor (AR) and β-catenin was measured and compared.
Specifically, dorsal skin tissues from each mouse subjected to the 27-day experiment (described in Example 8) were harvested, embedded in paraffin blocks, and sectioned at a thickness of 5 μm, followed by immunofluorescent staining.
The primary antibodies used were rabbit anti-β-catenin (Cell Signaling #9562) and mouse anti-AR (Santa Cruz, sc-7305). The fluorophore-conjugated secondary antibodies were goat anti-rabbit IgG conjugated with Alexa Fluor 488 (Abcam, ab150077) and goat anti-mouse IgG conjugated with Cyanine5 (Invitrogen, a10524).
After completion of the antibody reactions, DAPI staining was performed, and fluorescence patterns were analyzed using a Nikon ECLIPSE Ti2 fluorescence microscope and NIS-Elements software. The results are shown in FIGS. 22-24, and in Tables 19 and 20.

[3] = test system: testosterone-treated C57BL/6 mice; assay: Hair regrowth in testosterone-treated animal model; type: in vivo; conditions: Day 27; topical testosterone daily; 1 mg/kg Finasteride subcutaneous every other day; testosterone-untreated = 100
Method: To evaluate whether the composition of the present disclosure promotes hair regrowth, BxC-HAe isolated in Example 2 was administered to a testosterone-treated animal model, and changes in body weight and photographic observations were compared.
Specifically, six-week-old C57BL/6 mice were acclimated for two weeks under conditions of 25° C. and 50% humidity with ad libitum access to food and tap water. Eight-week-old mice were then used for the experiment.
On Day 0, initial depilation was performed using a hair clipper, followed by the application of Niklin (II-dong Pharmaceutical) for 90 seconds for secondary depilation. The area was then rinsed three times with lukewarm water.
In the testosterone-treated group, starting on Day 1, 100 μL of 0.5% (w/w) testosterone dissolved in 50% ethanol was topically applied daily to the depilated dorsal region of each mouse.
Starting from the point when hair regrowth began in the testosterone-untreated group, body weight was measured twice weekly, and photographs were taken once weekly.
Specifically, hair regrowth area and depilated area were measured using ImageJ software, and the ratio of hair regrowth area to depilated area was calculated and analyzed statistically.
The experiment was conducted until Day 27, the point at which hair regrowth was completed in the testosterone-untreated group. […]

## CC(C)(C)NC(=O)[C@H]1CC[C@H]2[C@@H]3CC[C@H]4NC(=O)C=C[C@]4(C)[C@H]3CC[C@]12C [Finasteride]
[1]
  Percentage of hair follicles in growth phase (%): 1.29%
[2]
  Fluorescence intensity (β-catenin): 1.05
[3]
  Hair growth area (%): 68.1%
